Measurements taken from US20230293488A1, “COMPOSITIONS AND METHODS OF USE OF ANTIBACTERIAL DRUG COMBINATIONS” (priority 2015, published 2023).
“Also recorded” adds a separate entry of the source. Like-named read-outs stand apart in the source and are kept apart here.

Experiments:
allosteric site of PBP2a = allosteric site of PBP2a (Staphylococcus aureus, UniProt P07944); test: Binding to the allosteric site of PBP2a
[1] = system: MRSA COL pbp2 antisense (AS) strain; test: Xylose-inducible antisense-RNA strain susceptibility (PBP2 repression); format: cell-based, Staphylococcus aureus; settings: targeted repression of PBP2
Text: (§1) We confirmed the targets of the constituents of ME/PI/TZ by reducing the expression of PBP1, PBP2, PBP2a or PBP3 using a xylose-inducible antisense-RNA strategy in the MRSA COL strain background^49. When expression levels of PBP2a were attenuated, the strain behaved as a methicillin-susceptible S. aureus and was sensitized to all tested β-lactams (FIG. 6A-C).

MRSA N315 = test: Adaptation and cross-resistance assays (11-day passage); format: cell-based, Staphylococcus aureus
Description: Adaptation and Cross-resistance Assays: 414 MRSA N315 was grown in 150 μl/well of CAMHB with constant shaking at 37° C. and passaged over 11 days in identical 96-well plates containing replicate threefold dilutions of ME/PI/TZ, ME/PI, ME/TZ, PI/TZ, ME, PI, and TZ. Top concentrations of drug combinations were 33.3 μg/ml for each component, while top concentrations for single drugs was 100 μg/ml. To test for cell viability, at the end of the assay on day 11, all wells from the plate were pinned with a sterile 96-pin replicator and transferred to CAMHB only. After passage, plates were filled 1:1 with 30% CAMHB/glycerol and frozen at −80° C. for later analysis.
Growth rate of isolates over passages in each condition was determined by linear best-fit of logarithm-converted exponential growth phase. […] Adapted isolates were retrospectively chosen from each combination or single compound in wells showing an increase in MIC or growth rate, frozen isolates were streaked out on agar plates to obtain single colonies, re-grown in broth conditions identical to those in which they grew originally, and then re-inoculated in sterile 96-well plates identical to the original 11-day 431 plates.

[2] = system: MRSA COL pbpA antisense (AS) strain; test: Xylose-inducible antisense-RNA strain susceptibility (PBP1 repression); format: cell-based, Staphylococcus aureus; settings: targeted repression of PBP1
Text: as §1

[3] = system: MRSA COL pbp2a/mecA antisense (AS) strain; test: Xylose-inducible antisense-RNA strain susceptibility (PBP2a repression); format: cell-based, Staphylococcus aureus; settings: targeted repression of PBP2a
Text: as §1

[4] = in vivo, iv; cited from earlier work

allosteric site of PBP2a, sequence (P07944 whole entry): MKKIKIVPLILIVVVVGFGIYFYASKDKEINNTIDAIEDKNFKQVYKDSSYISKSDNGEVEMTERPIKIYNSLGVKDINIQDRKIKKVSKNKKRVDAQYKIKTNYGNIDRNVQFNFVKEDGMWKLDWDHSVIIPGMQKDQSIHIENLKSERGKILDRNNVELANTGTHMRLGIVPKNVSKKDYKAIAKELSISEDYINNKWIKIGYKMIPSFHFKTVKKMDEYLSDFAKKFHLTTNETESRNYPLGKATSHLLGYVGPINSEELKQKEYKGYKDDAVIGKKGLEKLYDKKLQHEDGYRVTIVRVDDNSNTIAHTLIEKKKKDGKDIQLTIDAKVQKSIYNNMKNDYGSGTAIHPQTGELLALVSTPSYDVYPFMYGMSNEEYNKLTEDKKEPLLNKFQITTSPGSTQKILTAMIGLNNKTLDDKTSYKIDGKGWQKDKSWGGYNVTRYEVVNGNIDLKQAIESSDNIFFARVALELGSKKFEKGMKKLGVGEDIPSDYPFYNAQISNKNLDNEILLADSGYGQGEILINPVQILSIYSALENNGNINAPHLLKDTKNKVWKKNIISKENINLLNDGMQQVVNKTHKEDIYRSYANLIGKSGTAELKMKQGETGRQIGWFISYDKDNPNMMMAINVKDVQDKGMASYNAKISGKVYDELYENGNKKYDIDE

Compound | Kd (allosteric site of PBP2a; read-out: dissociation constant (Kd)) | Kd (allosteric site of PBP2a; read-out: dissociation constant (Kd), equivalent (converted)) | susceptibility under xylose induction [1] | collateral effect on susceptibility (MRSA N315; MRSA N315 after prior exposure to PI/TZ) | collateral effect on susceptibility (MRSA N315; MRSA N315 after prior exposure/adaptation to piperacillin) | susceptibility under xylose induction [2] | susceptibility under xylose induction [3] | mean peak plasma concentration [4] | collateral effect on susceptibility (MRSA N315; MRSA N315 after prior exposure to ME/TZ) | collateral effect on susceptibility (MRSA N315; MRSA N315 after prior exposure to tazobactam) | collateral effect on susceptibility (MRSA N315; MRSA N315 after prior exposure/adaptation to meropenem)
C[C@@H](O)[C@H]1C(=O)N2C(C(=O)O)=C(S[C@@H]3CN[C@H](C(=O)N(C)C)C3)[C@H](C)[C@H]12 [Meropenem] | 270 ± 80 µM | 271 µM | increased susceptibility; also recorded: increased effectiveness | sensitized | sensitizes; also recorded: strong reciprocal collateral sensitivity | increased susceptibility; also recorded: larger zones of inhibition | increased susceptibility | 112 µg/mL |  |  | 
CCN1CCN(C(=O)N[C@@H](C(=O)N[C@@H]2C(=O)N3[C@@H]2SC(C)(C)[C@@H]3C(=O)O)c2ccccc2)C(=O)C1=O [Piperacillin] |  |  | increased susceptibility; also recorded: increased effectiveness |  |  | increased susceptibility | Increased susceptibility |  | strong reciprocal collateral sensitivity | Collateral sensitivity | strong reciprocal collateral sensitivity
